Series [1] is described as follows: Antiinflammatory activity in mouse J774A1 cells assessed as inhibition of LPS-stimulated NO production pretreated for 2 hrs followed by LPS addition measured after 18 hrs post LPS challenge by spectrophotometry. The conditions noted are these: J774.A1. It is filed as functional, cell-based.
The test system of another series is J774.A1. Nature of the series: Antiinflammatory activity in mouse J774A1 cells assessed as inhibition of LPS-stimulated NO production pretreated at 10 uM for 2 hrs followed by LPS addition measured after 18 hrs post LPS challenge by spectrophotometry. It is filed as functional, cell-based.
The nature of series [2]: Cytotoxicity against mouse J774A1 cells by MTT assay. It is filed as cell-based. The conditions noted are these: j774.a1. Background: Tetrazolium assays rely on reduction of a dye to a coloured formazan, in cell work by metabolically active cells.

Calls of active or inactive are those of the source. No cut-off for these calls is given here.

IC50, inhibition and Activity data for five molecules are collected here from ChEMBL document CHEMBL3351604, “Rhytidenones A-F, Spirobisnaphthalenes from Rhytidhysteron sp. AS21B, an Endophytic Fungus” (J Nat Prod, 2014).

Consider `O=C1C[C@H](O)[C@@H](O)[C@@H]2C1=CCCC21Oc2cccc3cccc(c23)O1`, for which the IC50 in series [1] is 310 nM.

On to `OC1C=CC(O)C2C1C(O)CCC21Oc2cccc3cccc(c23)O1` (stereo not given), for which the inhibition result with J774.A1 is “inactive”.

As for `CO[C@@H]1CC(=O)C2=CCCC3(Oc4cccc5cccc(c45)O3)[C@@H]2[C@@H]1O`, the Activity entry in series [2] was “Toxic”.

Consider `O=C1C=C[C@@H](O)[C@@H]2C1=CCCC21Oc2cccc3cccc(c23)O1`, for which, in series [2], the Activity result is reported as “Toxic”.

For `O=C1C[C@@H](O)[C@@H](O)[C@@H]2C1=CCCC21Oc2cccc3cccc(c23)O1`, the IC50 in series [1] was 3600 nM.

As a reminder, the IC50 is the point on the concentration scale where inhibition reaches its midpoint.
